Holding throughout (type): cell membranes
Experiment [1] is filed under the species Rattus norvegicus. The experiment can be described thus: Antagonist activity at GABAB receptor in Sprague-Dawley rat brain cortex membrane assessed as decrease in 10 uM GABA-stimulated [35S]GTPgammaS binding at 2.5 uM incubated for 30 mins relative to GABA. Particulars: Cerebral cortex, filed as antagonist. The arrangement: scale not given: the % may be the effect or the level left. Background: GTPγS is a poorly hydrolysed GTP analogue; its binding reports G protein activation.

Experiment [2] is filed under the species Rattus norvegicus. The experiment can be described thus: Negative allosteric modulation of GABAB receptor in Sprague-Dawley rat brain cortex membrane assessed as decrease in [35S]GTPgammaS binding for 30 mins. The note with it: Cerebral cortex, filed as negative allosteric modulator.
The species entered for experiment [3] is Rattus norvegicus. Briefly: Negative allosteric modulation of GABAB receptor in Sprague-Dawley rat brain cortex membrane assessed as decrease in [35S]GTPgammaS binding at 2.5 uM incubated for 30 mins relative to control. The arrangement: scale not given: the % may be the effect or the level left. The note with it: Cerebral cortex, filed as negative allosteric modulator.

Experiment [4] is filed under the species Rattus norvegicus. Briefly: Antagonist activity at GABAB receptor in Sprague-Dawley rat brain cortex membrane assessed as decrease in 10 uM GABA-stimulated [35S]GTPgammaS binding at 25 uM incubated for 30 mins relative to GABA. The arrangement: scale not given: the % may be the effect or the level left. Particulars: Cerebral cortex, filed as antagonist.
The species named for experiment [5] is Rattus norvegicus. Briefly: Negative allosteric modulation of GABAB receptor in Sprague-Dawley rat brain cortex membrane assessed as decrease in [35S]GTPgammaS binding at 25 uM incubated for 30 mins relative to control. The arrangement: scale not given: the % may be the effect or the level left. Particulars: Cerebral cortex, filed as negative allosteric modulator.

For experiment [6], the species on record is Rattus norvegicus. The experiment can be described thus: Antagonist activity at GABAB receptor in Sprague-Dawley rat brain cortex membrane assessed as decrease in 10 uM GABA-stimulated [35S]GTPgammaS binding incubated for 30 mins. Particulars: Cerebral cortex, filed as antagonist.
For experiment [7], the species on record is Rattus norvegicus. Briefly: Agonist activity at GABAB receptor in Sprague-Dawley rat brain cortex membrane assessed as decrease in 10 uM GABA-stimulated [35S]GTPgammaS binding at 2.5 uM incubated for 30 mins. The arrangement: scale not given: the % may be the effect or the level left. Particulars: Cerebral cortex, filed as agonist.
Experiment [8] is filed under the species Rattus norvegicus. The experiment can be described thus: Agonist activity at GABAB receptor in Sprague-Dawley rat brain cortex membrane assessed as decrease in 10 uM GABA-stimulated [35S]GTPgammaS binding at 25 uM incubated for 30 mins. The note with it: Cerebral cortex, filed as agonist. The arrangement: scale not given: the % may be the effect or the level left.

Each structure is given as a SMILES string.

`Cn1c(Sc2ccc(Cl)cc2)nc(-c2ccc(C(C)(C)C)cc2)cc1=O`: the Activity in experiment [1] was 8.2%; in experiment [2], “Dose-dependent effect”; in experiment [3], 4%; in experiment [4], 3.1%; in experiment [5], 9.7%.
For the compound `Cc1c(O)c2cc(C(C)(C)C)ccc2n(CC(C)C)c1=O`, the Activity in experiment [1] was 8.4%; in experiment [2], “Dose-dependent effect”; in experiment [3] it was 13.5%; in experiment [4], 23.6%; in experiment [5], 32.5%; in experiment [6], “Dose-dependent effect”.
Turning to `CCCn1c(=O)c(C)c(O)c2cc(OC)ccc21`, the Activity in experiment [1] was 4.3%; in experiment [2] it was “Dose-dependent effect”; in experiment [3], 5%; in experiment [4] it was 7.4%; in experiment [5] it was 10.5%.
The like results for `CSc1ncc(-c2nnc(C)o2)c(NC2CCCC2)n1` were, in that order, 17.1%, “Dose-dependent effect”, 25.3%, 19% and 37.7%.
In the case of `Cn1c(Sc2ccc(Cl)cc2)nc(-c2ccccc2)cc1=O`, the Activity in experiment [1] was 10.9%; in experiment [2], “Dose-dependent effect”; in experiment [3], 12.2%; in experiment [4], 34.1%; in experiment [5], 34.7%; in experiment [6] it was “Dose-dependent effect”.
On to `CCOC(=O)c1cnc(SC)nc1NC1CCCC1`, for which the Activity was 10.3% in experiment [1]; “Dose-dependent effect” in experiment [2]; 25% in experiment [3]; 5.7% in experiment [4]; 29.3% in experiment [5].
Turning to `Cn1c(Sc2ccccc2)nc(-c2ccccc2)cc1=O`, the Activity in experiment [1] was 1.6%; in experiment [2], “Dose-dependent effect”; in experiment [3] it was 4.7%; in experiment [4], 4.7%; in experiment [5], 9.7%.
As for `CC(C)Cn1c(=O)c(C(C)C)c(O)c2cc(C(C)(C)C)ccc21`, the Activity in experiment [1] was 15.3%; in experiment [2] it was “Dose-dependent effect”; in experiment [3], 23%; in experiment [4], 36.2%; in experiment [5] it was 50.7%; in experiment [6], “Dose-dependent effect”.
As for `CC(C)Cn1c(=O)c(C(C)C)c(O)c2cc(C(C)C)ccc21`, the Activity in experiment [1] was 13.5%; in experiment [2], “Dose-dependent effect”; in experiment [3] it was 8.7%; in experiment [4] it was 41.5%; in experiment [5] it was 41.5%; in experiment [6] it was “Dose-dependent effect”.
Turning to `Cc1c(O)nc(-c2ccccc2)n(Cc2ccccc2)c1=O`, the Activity in experiment [1] came out at 5.7%; in experiment [3], 3.3%; in experiment [4] it was 6.2%; in experiment [5] it was 8.3%.
The like results for `O=c1cc(O)nc(-c2ccccc2)n1Cc1ccccc1` were, in that order, 0.9%, 2.4%, 12.4% and 14%.
In the case of `CCCCCn1c(=O)c(C(C)C)c(O)c2cc(C(C)C)ccc21`, the Activity in experiment [1] is 7%; in experiment [2], “Dose-dependent effect”; in experiment [3] it was 9%; in experiment [4] it was 24.4%; in experiment [5], 37.7%; in experiment [6], “Dose-dependent effect”.
Take `CSc1ncc(-c2nc(C)no2)c(NC2CCCC2)n1`: the Activity was 10.3% in experiment [1]; “Dose-dependent effect” in experiment [2]; 19% in experiment [3]; 19% in experiment [4]; 33.3% in experiment [5]; “Dose-dependent effect” in experiment [6].
Regarding `CC(C)c1c(O)c2cc(C(C)(C)C)ccc2n(CC(C)(C)C)c1=O`, the Activity in experiment [7] was 1.7%; in experiment [2], “Dose-dependent effect”; in experiment [3] it was 2%; in experiment [4] it was 6.3%; in experiment [5], 22.7%.
For the compound `CCOC(=O)c1cnc(-n2nc(C)cc2C)nc1NC1CCCC1`, the Activity was 14.4% in experiment [1]; “Dose-dependent effect” in experiment [2]; 18.3% in experiment [3]; 40.8% in experiment [4]; 44.7% in experiment [5]; “Dose-dependent effect” in experiment [6].
Take `O=c1cc(-c2ccccc2)nc(Sc2ccc(Cl)cc2)[nH]1`: the Activity in experiment [1] is 4.9%; in experiment [2], “Dose-dependent effect”; in experiment [3], 8.7%; in experiment [4], 7.4%; in experiment [5], 14.7%.
For `O=c1cc(-c2ccccc2)nc(Sc2ccccc2)[nH]1`, the Activity in experiment [1] was 4.7%; in experiment [2] it was “Dose-dependent effect”; in experiment [3] it was 3.3%; in experiment [4], 6.1%; in experiment [5], 7.3%.
`CC(C)c1c(O)nc(-c2ccccc2)n(Cc2ccccc2)c1=O`: the Activity amounted to 5.2% in experiment [1], 2.3% in experiment [3], 8% in experiment [4] and 13% in experiment [5].
Regarding `CC(C)c1ccc2c(c1)c(O)c(C(C)C)c(=O)n2CC(C)(C)C`, the Activity in experiment [1] is 2%; in experiment [2], “Dose-dependent effect”; in experiment [3] it was 3.2%; in experiment [8] it was 2.6%; in experiment [5], 13.8%.
